Source: PubChem BioAssay (NCI)
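Following 48 hours of exposure in 96-well plates, responses at five concentrations were used to interpolate endpoints linearly. TGI denotes the concentration required for complete inhibition of growth.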

Assays:
Assay in all cases: growth of human tumour cells (NCI), 48 h
HOP-92 NSCLC = test system: HOP-92 NSCLC
CAKI-1 renal = test system: CAKI-1 renal
MCF7 breast = test system: MCF7 breast
SW-620 colon = test system: SW-620 colon
MDA-MB-231 breast = test system: MDA-MB-231 breast
RPMI-8226 leukemia = test system: RPMI-8226 leukemia
SK-MEL-28 melanoma = test system: SK-MEL-28 melanoma
U251 CNS = test system: U251 CNS
NCI-H460 lung = test system: NCI-H460 lung
T-47D breast = test system: T-47D breast
UO-31 renal = test system: UO-31 renal
OVCAR-3 ovarian = test system: OVCAR-3 ovarian
OVCAR-8 ovarian = test system: OVCAR-8 ovarian
ACHN renal = test system: ACHN renal
SK-MEL-5 melanoma = test system: SK-MEL-5 melanoma
A549 NSCLC = test system: A549 NSCLC
LOX IMVI melanoma = test system: LOX IMVI melanoma
HL-60(TB) leukemia = test system: HL-60(TB) leukemia
COLO 205 colon = test system: COLO 205 colon
NCI/ADR-RES ovarian = test system: NCI/ADR-RES ovarian
KM12 colon = test system: KM12 colon
NCI-H23 lung = test system: NCI-H23 lung
HT29 colon = test system: HT29 colon
HCT-116 colon = test system: HCT-116 colon
NCI-H226 lung = test system: NCI-H226 lung
MALME-3M melanoma = test system: MALME-3M melanoma
UACC-62 melanoma = test system: UACC-62 melanoma
NCI-H522 lung = test system: NCI-H522 lung
SR leukemia = test system: SR leukemia
OVCAR-5 ovarian = test system: OVCAR-5 ovarian
UACC-257 melanoma = test system: UACC-257 melanoma
HCT-15 colon = test system: HCT-15 colon
M14 melanoma = test system: M14 melanoma
RXF 393 renal = test system: RXF 393 renal
MOLT-4 leukemia = test system: MOLT-4 leukemia
OVCAR-4 ovarian = test system: OVCAR-4 ovarian
IGROV1 ovarian = test system: IGROV1 ovarian
786-0 renal = test system: 786-0 renal
HS 578T breast = test system: HS 578T breast
SN12C renal = test system: SN12C renal
SF-539 CNS = test system: SF-539 CNS
HOP-62 NSCLC = test system: HOP-62 NSCLC
K-562 leukemia = test system: K-562 leukemia
SF-268 CNS = test system: SF-268 CNS
MDA-MB-435 = test system: MDA-MB-435
TK-10 renal = test system: TK-10 renal
DU-145 prostate = test system: DU-145 prostate
A498 renal = test system: A498 renal
SK-OV-3 ovarian = test system: SK-OV-3 ovarian
EKVX NSCLC = test system: EKVX NSCLC
HCC-2998 colon = test system: HCC-2998 colon
MDA-N = test system: MDA-N
CCRF-CEM leukemia = test system: CCRF-CEM leukemia
PC-3 prostate = test system: PC-3 prostate
SF-295 CNS = test system: SF-295 CNS
SNB-19 CNS = test system: SNB-19 CNS
SK-MEL-2 melanoma = test system: SK-MEL-2 melanoma
SNB-75 CNS = test system: SNB-75 CNS

COC(=O)[C@]12CC[C@H]3CN(C(=O)OCc4ccccc4)[C@H]([C@H]31)[C@H](c1ccco1)N2
TGI (HOP-92 NSCLC): > 100 µM
TGI (CAKI-1 renal): > 100 µM
TGI (MCF7 breast): > 100 µM
TGI (SW-620 colon): > 100 µM
TGI (MDA-MB-231 breast): > 100 µM
TGI (RPMI-8226 leukemia): > 100 µM
TGI (SK-MEL-28 melanoma): > 100 µM
TGI (U251 CNS): > 100 µM
TGI (NCI-H460 lung): > 100 µM
TGI (T-47D breast): > 100 µM
TGI (UO-31 renal): > 100 µM
TGI (OVCAR-3 ovarian): > 100 µM
TGI (OVCAR-8 ovarian): > 100 µM
TGI (ACHN renal): > 100 µM
TGI (SK-MEL-5 melanoma): 37.3 µM
TGI (A549 NSCLC): > 100 µM
TGI (LOX IMVI melanoma): > 100 µM
TGI (HL-60(TB) leukemia): 84.4 µM
TGI (COLO 205 colon): 40.9 µM
TGI (NCI/ADR-RES ovarian): 51.7 µM
TGI (KM12 colon): > 100 µM
TGI (NCI-H23 lung): 42.2 µM
TGI (HT29 colon): > 100 µM
TGI (HCT-116 colon): > 100 µM
TGI (NCI-H226 lung): > 100 µM
TGI (MALME-3M melanoma): 80.2 µM
TGI (UACC-62 melanoma): > 100 µM
TGI (NCI-H522 lung): 39.1 µM
TGI (SR leukemia): > 100 µM
TGI (OVCAR-5 ovarian): > 100 µM
TGI (UACC-257 melanoma): 81.4 µM
TGI (HCT-15 colon): 84.5 µM
TGI (M14 melanoma): > 100 µM
TGI (RXF 393 renal): > 100 µM
TGI (MOLT-4 leukemia): 64.5 µM
TGI (OVCAR-4 ovarian): 31.2 µM
TGI (IGROV1 ovarian): > 100 µM
TGI (786-0 renal): > 100 µM
TGI (HS 578T breast): > 100 µM
TGI (SN12C renal): > 100 µM
TGI (SF-539 CNS): > 100 µM
TGI (HOP-62 NSCLC): > 100 µM
TGI (K-562 leukemia): > 100 µM
TGI (SF-268 CNS): > 100 µM
TGI (MDA-MB-435): 61.8 µM
TGI (TK-10 renal): > 100 µM
TGI (DU-145 prostate): > 100 µM
TGI (A498 renal): 36.3 µM
TGI (SK-OV-3 ovarian): > 100 µM
TGI (EKVX NSCLC): > 100 µM
TGI (HCC-2998 colon): > 100 µM
TGI (MDA-N): > 100 µM
TGI (CCRF-CEM leukemia): > 100 µM
TGI (PC-3 prostate): > 100 µM
TGI (SF-295 CNS): > 100 µM
TGI (SNB-19 CNS): > 100 µM
TGI (SK-MEL-2 melanoma): > 100 µM

O=C(C=P(c1ccccc1)(c1ccccc1)c1ccccc1)c1ccc(-c2cccc([N+](=O)[O-])c2)cc1
TGI (HOP-92 NSCLC): 6.92 µM
TGI (CAKI-1 renal): 9.38 µM
TGI (MCF7 breast): 10.6 µM
TGI (SW-620 colon): 14.5 µM
TGI (MDA-MB-231 breast): 8 µM
TGI (RPMI-8226 leukemia): 3.98 µM
TGI (SK-MEL-28 melanoma): 18.2 µM
TGI (U251 CNS): 13.2 µM
TGI (NCI-H460 lung): 4.27 µM
TGI (T-47D breast): 27.1 µM
TGI (UO-31 renal): 4.8 µM
TGI (OVCAR-3 ovarian): 9.69 µM
TGI (ACHN renal): 7.87 µM
TGI (SNB-75 CNS): 6.86 µM
TGI (SK-MEL-5 melanoma): 5.91 µM
TGI (A549 NSCLC): 12.7 µM
TGI (LOX IMVI melanoma): 4.15 µM
TGI (HL-60(TB) leukemia): 5.08 µM
TGI (COLO 205 colon): 3.31 µM
TGI (NCI/ADR-RES ovarian): 25.1 µM
TGI (KM12 colon): 20 µM
TGI (NCI-H23 lung): 21.2 µM
TGI (HT29 colon): 3.13 µM
TGI (HCT-116 colon): 6.24 µM
TGI (NCI-H226 lung): 19.9 µM
TGI (MALME-3M melanoma): 9.31 µM
TGI (UACC-62 melanoma): 15.9 µM
TGI (SR leukemia): 8.09 µM
TGI (OVCAR-5 ovarian): 14.9 µM
TGI (UACC-257 melanoma): 15.8 µM
TGI (HCT-15 colon): 12.7 µM
TGI (M14 melanoma): 4.64 µM
TGI (RXF 393 renal): 9.34 µM
TGI (MOLT-4 leukemia): 5.55 µM
TGI (OVCAR-4 ovarian): 9.52 µM
TGI (786-0 renal): 20.8 µM
TGI (HS 578T breast): 22.4 µM
TGI (SN12C renal): 12 µM
TGI (SF-539 CNS): 15.3 µM
TGI (HOP-62 NSCLC): 27.6 µM
TGI (K-562 leukemia): 7.98 µM
TGI (SF-268 CNS): > 100 µM
TGI (MDA-MB-435): 5.4 µM
TGI (TK-10 renal): 55.9 µM
TGI (DU-145 prostate): 35.1 µM
TGI (A498 renal): 9.11 µM
TGI (SK-OV-3 ovarian): 18.6 µM
TGI (EKVX NSCLC): 11.7 µM
TGI (HCC-2998 colon): 4.75 µM
TGI (MDA-N): 9.09 µM
TGI (CCRF-CEM leukemia): 7.25 µM
TGI (PC-3 prostate): 18.6 µM
TGI (SF-295 CNS): > 100 µM
TGI (SNB-19 CNS): > 100 µM
TGI (SK-MEL-2 melanoma): 3.78 µM

O=C1NC2c3c(I)sc(I)c3/C(=N\O)C2O1 (stereo not drawn)
TGI (HOP-92 NSCLC): 68.1 µM
TGI (CAKI-1 renal): > 100 µM
TGI (MCF7 breast): > 100 µM
TGI (SW-620 colon): 60.6 µM
TGI (MDA-MB-231 breast): 95.8 µM
TGI (RPMI-8226 leukemia): > 100 µM
TGI (SK-MEL-28 melanoma): > 100 µM
TGI (U251 CNS): 76.9 µM
TGI (NCI-H460 lung): > 100 µM
TGI (T-47D breast): > 100 µM
TGI (UO-31 renal): 32.7 µM
TGI (OVCAR-3 ovarian): 40.2 µM
TGI (OVCAR-8 ovarian): 43.4 µM
TGI (ACHN renal): 33.6 µM
TGI (SNB-75 CNS): > 100 µM
TGI (A549 NSCLC): > 100 µM
TGI (LOX IMVI melanoma): > 100 µM
TGI (HL-60(TB) leukemia): 83.5 µM
TGI (COLO 205 colon): 48.8 µM
TGI (NCI/ADR-RES ovarian): 47.7 µM
TGI (KM12 colon): > 100 µM
TGI (NCI-H23 lung): 56.8 µM
TGI (HT29 colon): 33.4 µM
TGI (HCT-116 colon): 75.4 µM
TGI (NCI-H226 lung): > 100 µM
TGI (MALME-3M melanoma): 50.2 µM
TGI (UACC-62 melanoma): > 100 µM
TGI (SR leukemia): > 100 µM
TGI (OVCAR-5 ovarian): > 100 µM
TGI (UACC-257 melanoma): > 100 µM
TGI (HCT-15 colon): > 100 µM
TGI (M14 melanoma): > 100 µM
TGI (RXF 393 renal): 44.5 µM
TGI (MOLT-4 leukemia): > 100 µM
TGI (OVCAR-4 ovarian): 89.8 µM
TGI (IGROV1 ovarian): 45 µM
TGI (786-0 renal): 57.1 µM
TGI (HS 578T breast): 70.4 µM
TGI (SN12C renal): > 100 µM
TGI (SF-539 CNS): 42.6 µM
TGI (HOP-62 NSCLC): > 100 µM
TGI (K-562 leukemia): > 100 µM
TGI (SF-268 CNS): 67.8 µM
TGI (MDA-MB-435): > 100 µM
TGI (TK-10 renal): > 100 µM
TGI (DU-145 prostate): > 100 µM
TGI (A498 renal): > 100 µM
TGI (SK-OV-3 ovarian): > 100 µM
TGI (EKVX NSCLC): 35.1 µM
TGI (HCC-2998 colon): > 100 µM
TGI (MDA-N): > 100 µM
TGI (CCRF-CEM leukemia): 80.3 µM
TGI (PC-3 prostate): > 100 µM
TGI (SF-295 CNS): > 100 µM
TGI (SNB-19 CNS): 58.2 µM
TGI (SK-MEL-2 melanoma): > 100 µM
